Earlier results as cited in US6127388A, “Azetidine, pyrrolidine and piperidine derivatives as 5-HT1D receptor agonists” (Merck Sharp & Dohme Ltd., priority 1996, dated 2000).

Details: therapeutic doses

CNS(=O)(=O)Cc1ccc2[nH]cc(CCN(C)C)c2c1 [sumatriptan]
adverse cardiovascular events in humans: certain adverse cardiovascular events
